According to US8338480B2, “Combination treatment of metabolic disorders” (Wellstat Therapeutics Corporation, priority 2006, dated 2012):
Where a name gives a salt, the structure may show the parent alone.

System: db/db mice
Assay: Serum glucose in db/db mice treated for two weeks (Example 6)
Assay type: in vivo
Conditions: for Glucose / Glucose (% Control): two weeks daily oral; for Glucose (% Control): vehicle = 100
Experimental: A minimum of 7 days was allowed for adaptation after arrival.
Treatment cohorts were given daily oral doses of vehicle, Compound BI (100 mg/kg/day), rosiglitazone (RSG; 3 mg/kg/day) or a combination of the two drugs for 2 weeks. At the end of the treatment period epididymal fat pads were excised, frozen and subsequently processed for measurement of UCP1 by Western Blot analysis. Blood samples were also collected prior to sacrifice via the retro-orbital plexus, and processed and analyzed for serum glucose (AniLytics, Inc.; Gaithersburg Md.).

What does the source list for `CN(CCOc1ccc(CC2SC(=O)NC2=O)cc1)c1ccccn1` (centres unmarked) [RSG, rosiglitazone maleate, reference compound]?
Glucose (RSG 3 mg/kg): 403.7 ± 28.0 mg/dL; Glucose (% Control) (RSG 3 mg/kg): 59 ± 4 % Control

What does the source list for `Cc1cccc(C)c1COc1cccc(C(=O)CCC(=O)O)c1` [Compound BI, 4-(3-(2,6-Dimethylbenzyloxy)phenyl)-4-oxobutyric acid]?
serum glucose (in words) (2 weeks, Compound BI 100 mg/kg/day, RSG 3 mg/kg/day, alone or combined): reduced serum glucose relative to vehicle treated control animals; Glucose (Cpd. BI 100 mg/kg): 302.0 ± 40.7 mg/dL; Glucose (% Control) (Cpd. BI 100 mg/kg): 44 ± 6 % Control
